# US20140378513A1, “USE OF FUNGICIDES IN LIQUID SYSTEMS” (priority 2011, published 2014)
# Columns and labels:
# [1] = tested on: microalgae; assay: Ranges of microalgae toxicity (serial dilution of fungicide in growing culture); settings: range in which fungicide begins to show growth effects on microalgae
# From the text: The present disclosure provides for the introduction of fungicides at an effective concentration. Effective concentrations may be determined according to manufacturer's instructions or may be determined empirically. An effective concentration of a fungicide is not toxic to the microalgae being cultured in the liquid system. Methods to determine toxicity are known in the art and include serial dilutions of a test fungicide in a growing liquid culture of microalgae. One of skill in the art would understand that different microalgae may have different ranges of toxicity that may be determined by growth of a microalga in the presence of a serial dilution of a fungicide.
# Algae are screened for sensitivity to chemicals by preparing 180 ml of a log phase culture. The log phase culture is transferred into a 96 well microtiter plate at an absorbance at 750 nm (OD750 or A750) of ˜0.2. Twenty microliters of media is provided into the top row as a negative control, the middle six rows receive a 20 microliter dilution, which is a 10 fold dilution of the chemical at each transfer, of the chemical across an appropriate concentration gradient, and the bottom row receives 20 microliter of the solvent used to solubilize the pesticide alone as a control. The total volume per well is 200 μl. Each chemical is tested in triplicate. The growth of the algae is tracked daily by measuring the A750. After 8 days, the growth rate of the algae is measured by fitting the growth curve to a log model and deriving the maximum growth rate (r). The impact of the chemical is calculated by comparing the r of the algae at various dilutions of the pesticide to the control.
# [2] = tested on: Desmid species; assay: Algae sensitivity screen, 96 well, growth rate by A750 over 8 days; assay type: cell-based
# Description: (§1) The total volume per well is 200 μl. Each chemical is tested in triplicate.
# [3] = tested on: Scenedesmus dimorphus; assay: as above; assay type: cell-based
# Description: as §1
# [4] = tested on: Scenedesmus species; assay: as above; assay type: cell-based
# Description: as §1
# [5] = tested on: Pest in infected Scenedesmus dimorphus culture; assay: Fungicide efficacy on pest control in infected microalgae culture; assay type: cell-based; settings: for positive efficacy in a first trial confirmed in a second trial: Table 6; for Rating: rating scale of 0 to 3 by percent efficacy
# From the text: Failure to treat an infected culture results in the collapse and loss of the microalgae culture. […] Test fungicides are graded on a rating scale of 0 to 3 where a score of 0 represents an efficacy of between 0 and 25%, a score of 1 represents an efficacy of between 26 and 50%, a score of 2 represents an efficacy of between 51 and 75% and a score of 3 represents an efficacy of between 76 and 100%.
# [6] = tested on: desmid strain (UTEX 1237); assay: Growth of uncontaminated laboratory microalgae culture with fungicide (OD 750 nm); assay type: cell-based; settings: UTEX 1237, 32° C., OD 750 nm daily
# Description: (§2) A desmid strain (UTEX 1237) is inoculated into 1 ml of media at an initial A750 of 0.15. […] These cultures are monitored daily for growth by measuring the optical density of the culture at 750 nm. If pests are detected, their genomic DNA is quantitated at the beginning and end of the experiment using the methods presented above. […]
# as §2, with “into 1.0” for “into 1”, “media IABR6” for “media”, “initial OD (A750)” for “initial A750”
# as §2, with “OD (750 nm)” for “A750”, “in these cultures” for “detected,”, “experiment.” for “experiment using the methods presented above.”
# [7] = tested on: chytrids known to infect the strain (desmid UTEX 1237); assay: Growth of chytrid-inoculated microalgae culture with fungicide (OD 750 nm); assay type: cell-based
# Description: Microalgae cultures are prepared as described above and further inoculated with chytrids known to infect the strain, grown, and monitored as described above. […] In contrast, contaminated cultures grown in the presence of 250 ppb or higher concentrations of fluazinam are not affected by the presence of added chytrid. Fluazinam at a concentration of 100 ppb results in a stabilization of microalgae density at 0.8 ODU which is about 4 times the density of microalgae grown in the absence of fluazinam.
# (§3) Microalgae cultures are prepared as described above and further inoculated with chytrids known to infect the strain, grown and monitored as described above. […] In contrast, contaminated cultures grown in the presence of 1 ppm or higher concentrations of Headline® are not affected by the presence of added chytrid contaminant. Headline® at a concentration of 0.5 ppm results in a stabilization of microalgae density at about 0.3 ODU which is about 2 times the density of microalgae grown in the absence of Headline®.
# as §3, with “2” for “1”, “Thiram®” for “Headline®”, “1.0” for “0.5”, “0.8” for “0.3”, “4” for “2”, “Thiram®.” for “Headline®.”
# [8] = tested on: pest FD100; assay: 200,000 liter outdoor desmid pond P08, qPCR monitoring and treatment; parameters: species or system chytrid FD100
# Description: A 200,000 liter outdoor pond located in Las Cruces, N. Mex. is inoculated with a desmid strain at an initial OD (750 nm) of ˜0.15 (pond P08). Growth of the microalgae is monitored daily by measuring the ash free dry weight of the culture. PCR monitoring is performed daily to detect the presence of pests.
# Initially, the Ct value for the pest is above the threshold of Ct=30 until day 15 (See, FIG. 14). The measured Ct observed for pest FD100 monitoring stays below Ct=30 and indicates a need for crop protective action. On day 18 post-inoculation, fluazinam is added at a concentration of 0.5 ppm. Daily monitoring is continued and the Ct observed for pest FD100 increases above the Ct=30 threshold and remains above the threshold through day 38.
# Successful culture depends on the timely identification of a pest. On day 30, in response to a decrease in optical density of the culture, 1 ppm of pyraclostrobin is added.
# [9] = tested on: chytrid pest; assay: Outdoor ponds P16 and PA6 with or without fluazinam treatment
# Description: Monitoring for chytrid pest and microalgae growth is performed as described in the examples above. In Pond 16 (P16), a signal for the presence of a chytrid pest is detected beginning on Day 8 using the universal primer pair to the methyltransferase gene (SEQ ID NOs: 30 and 31) and to the ITS gene (SEQ ID NOs: 32 and 33). At this point, 400 liters of P16 are inoculated into Pond A6 (PA6). Continuous detection of the presence of chytrid in pond P16 and A6, indicates a need for crop protection and 0.5 ppm of fluazinam is added on Day 11 to P16 but not PA6. Monitoring of the growth of microalgae is continued in both Pond 16 and Pond A6 using total organic carbon (TOC), OD(750), fluorescence, and a FlowCAM®.
# [10] = log phase culture, 10 fold dilutions
# [11] = log phase culture, 10 fold dilutions, 8 days
# [12] = Tetradesmus dimorphus, read-out: Scenedesmus dimorphus efficacy
# [13] = fluazinam 100 ppb, contaminated culture
SMILES,Ranges of Microalgae toxicity [1],"Desmid species toxicity [2, 10]","Scenedesmus dimorphus toxicity [3, 10]","Scenedesmus species toxicity [4, 11]",Rating [5],Desmid species toxicity ([2]; Desmid species),Scenedesmus dimorphus toxicity ([3]; Scenedesmus dimorphus),"Scenedesmus species toxicity ([4]; Scenedesmus species, 8 days)",also measured
"CC1=C(C(=O)Nc2ccccc2)SCCO1 [carboxine, 6-methyl-N-phenyl-2,3-dihydro-1,4-oxathiine-5-carboxamide]",0.977-3.906 ppm,0.977-3.906 ppm,0-0.244 ppm,0.244-0.977 ppm,0 (a score of 0 represents an efficacy of between 0 and 25%),–,–,–,"positive efficacy in a first trial confirmed in a second trial [5]: not confirmed; activity at 5 ppm [5, 12]: 24.6%"
CCCOC/C(=N\c1ccc(Cl)cc1C(F)(F)F)n1ccnc1 [triflumizole],1.563-6.25 ppm,–,–,–,0 (a score of 0 represents an efficacy of between 0 and 25%),1.563-6.25 ppm,1.563-6.25 ppm,1.563-6.25 ppm,–
CON=C(Cc1cccnc1)c1ccc(Cl)cc1Cl [pyrifenox],0.004-0.156 ppm,0.004-0.0156 ppm,0.039-0.156 ppm,0.039-0.156 ppm,0 (a score of 0 represents an efficacy of between 0 and 25%),–,–,–,"Scenedesmus dimorphus efficacy ([5]; first trial, result as symbol): (+/−)"
"CC(Cc1ccc(C(C)(C)C)cc1)CN1CCCCC1 (centres unmarked) [fenpropidin, 1-[3-(4-tert-butylphenyl)-2-methylpropyl]piperidine]",0.00195-1.953 ppm,0.031-0.125 ppm,0.00195-0.0078 ppm,–,0 (a score of 0 represents an efficacy of between 0 and 25%),–,–,–,"Scenedesmus species toxicity ([4]; cell marked (ppb)): 0.488-1.953 ppb; positive efficacy in a first trial confirmed in a second trial [5]: not confirmed; activity at 0.8 ppm [5, 12]: 18.5%"
CCC(C)(NC(=O)c1cc(Cl)c(C)c(Cl)c1)C(=O)CCl (centres unmarked) [zoxamide],0.0156-0.250 ppm,–,–,–,0 (a score of 0 represents an efficacy of between 0 and 25%),0.0156-0.0625 ppm,0.0625-0.250 ppm,0.0156-0.0625 ppm,–
"O=[N+]([O-])c1cc(C(F)(F)F)c(Cl)c([N+](=O)[O-])c1Nc1ncc(C(F)(F)F)cc1Cl [fluazinam, 3-chloro-N-[3-chloro-2,6-dinitro-4-(trifluoromethyl)phenyl]-5-(trifluoromethyl)-2-pyridinamine]",>7.5 ppm,–,–,–,2 (a score of 2 represents an efficacy of between 51 and 75%),–,–,–,"activity at 0.8 ppm [5, 12]: 67%; concentrations that do not significantly affect the growth of the uncontaminated microalgae culture [6]: up to 2 ppm; concentration at which contaminated cultures are not affected by the presence of added chytrid ([7]; UTEX 1237 inoculated with chytrids): ≥ 250 ppb; density relative to microalgae grown in the absence of fungicide [7, 13]: about 4 times; stabilization of microalgae density [7, 13]: 0.8 ODU; Ct observed for pest FD100 after treatment ([8]; 0.5 ppm added day 18 post-inoculation, through day 38): > 30; growth of microalgae in treated pond ([9]; 0.5 ppm added on Day 11 to P16, untreated PA6 collapses): Logarithmic growth continues; fraction of infected cells after treatment ([9]; 0.5 ppm, pond P16, increases in untreated PA6): stabilizes or decreases"
O=C(Nc1ccccc1)N(Cc1ccc(Cl)cc1)C1CCCC1 [pencycuron],0.781-12.5 ppm,3.125-12.5 ppm,3.125-12.5 ppm,0.781-3.125 ppm,0 (a score of 0 represents an efficacy of between 0 and 25%),–,–,–,–
CNC(=O)/C(=N/OC)c1ccccc1COc1cc(C)ccc1C [dimoxystrobin],0.004-0.0625 ppm,0.004-0.0156 ppm,0.0156-0.0625 ppm,0.0156-0.0625 ppm,0 (a score of 0 represents an efficacy of between 0 and 25%),–,–,–,–
"COC(=O)N(OC)c1ccccc1COc1ccn(-c2ccc(Cl)cc2)n1 [pyraclostrobin, methyl N-[2-[[[1-(4-chlorophenyl)-1H-pyrazol-3-yl]oxy]methyl]phenyl]-N-methoxycarbamate]",>15 ppm,–,–,–,2 (a score of 2 represents an efficacy of between 51 and 75%),–,–,–,"activity at 2 ppm [5, 12]: 66%; culture outcome after second fungicide ([8]; 1 ppm added on day 30 after decrease in optical density): the culture collapses"
Cc1ccc(-c2c(Cl)nc(C#N)n2S(=O)(=O)N(C)C)cc1 [cyazofamid],0.03125-0.125 ppm,–,–,–,0 (a score of 0 represents an efficacy of between 0 and 25%),0.125-0.500 ppm,0.03125-0.125 ppm,0.03125-0.125 ppm,–
